We go through 2 substances from patent publication US20190345202A1, “ANDROGEN RECEPTOR ANTISENSE OLIGONUCLEOTIDES” (OliPass Corporation, priority 2016, published 2019).

One data set concerns 10-mer complementary DNA. Description: Tm of duplex between PNA and 10-mer complementary DNA (UV/Vis). In kind it is binding. The conditions noted are these: 4 μM PNA and 4 μM 10-mer DNA, aqueous buffer pH 7.16, 10 mM sodium phosphate, 100 mM NaCl. As to the method: The PNA derivatives in Table 1 were evaluated for their binding affinity for 10-mer DNAs complementarily targeting either the N-terminal or C-terminal. The binding affinity was assessed by Tm value for the duplex between PNA and 10-mer complementary DNA. The duplex between PNA derivatives in Table 1 and fully complementary DNAs show Tm values too high to be reliably determined in aqueous buffer solution, since the buffer solution tends to boil off during the Tm measurement.
Tm values were determined on an UV/Vis spectrometer as follows. A mixed solution of 4 μM PNA oligomer and 4 μM complementary 10-mer DNA in 4 mL aqueous buffer (pH 7.16, 10 mM sodium phosphate, 100 mM NaCl) in 15 mL polypropylene falcon tube was incubated at 90° C. for a minute and slowly cooled down to ambient temperature over several minutes. Then the solution was transferred into a 3 mL quartz UV cuvette equipped with an air-tight cap, and subjected to a Tm measurement at 260 nm on an Agilent 8453 UV/Visible spectrophotometer or a similar one as described in the prior art [PCT/KR2009/001256] or with minor modifications. The 10-mer complementary DNAs for Tm measurement were purchased from Bioneer (www.bioneer.com, Dajeon, Republic of Korea) and used without further purification.

Data set [1] concerns human AR mRNA. Description: qPCR (SYBR Green) of AR mRNA level in MCF7 cells. Particulars: 5 hours.
Data set [2] concerns human AR mRNA. Description: qPCR (TaqMan probe) of AR mRNA level in MCF7 cells. Type of data set: cell-based. The conditions noted are these: 1 zM to 1 aM, 24 hours. From the text:
The qPCR reaction was monitored with a TaqMan probe of [(5′→3′) TTTCTTCAG-ZEN-CTTCCGGGCTC-3IABkFQ (SEQ ID NO: 19)].

In another data set the test system is C57BL/6 mice. Description: Hair growth in C57BL/6 mice upon topical administration (brightness score, hair weight). In kind it is in vivo, mouse. Here is the method:
[Hair Removal and Grouping] In Day 0, 7 week old female C57BL/6 mice were anesthetized with zoletil/rompun, and the hair in the back was cut and removed with a clipper and wax, respectively. Mice with flawless (i.e. spotless) hair removal were selected and randomly assigned into three groups (7 animals per group).
[Topical Administration] The topical solutions of “ASO 1” were prepared by diluting a mother stock solution of “ASO 1” to 0.2 fM or 1 fM in aqueous 30% (v/v) ethanol supplemented with 3% (v/v) glycerin. About 100 μL of 0 (negative control), 0.2, or 1 fM “ASO 1” was topically administered in the back of each animal using a cotton ball in Days 3, 7, 10, and 14.
[Digital Image Scoring for Hair Growth] For scoring the hair growth, the animals were anesthetized and photographed by group as shown in FIG. 11A using a digital camera at a fixed value of exposure time and illumination. The digital image for the area of the hair removal for each animal was selected and digitally scored for the average brightness over the selected area using “ImageJ” program. Lower brightness score is taken as faster hair growth. Brightness scores of individual animals were combined by group, and subjected to statistical analysis by student's t-test. FIG. 11B summarizes the relative brightness scores of the ASO treated groups against the control group. The relative brightness score tended to decrease with days in the treatment groups. […] Thus, “ASO 1” was concluded to promote hair growth upon topical administrations at 1 fM.
[Scoring by Hair Weight] In Day 21, the animals were anesthetized and the hair in the back was cut with a clipper. The hair samples from individual animals were combined by group, and weighed to evaluate the hair growth between Day 0 and Day 21. The average hair weight was 70.5 mg/animal for the control group, 90.8 mg/animal for the 0.2 fM treatment group, and 94.4 mg/animal for the 1 fM treatment group. Thus “ASO 1” was concluded to promote hair growth upon topical administrations at 0.2 fM as well as 1 fM.
[Hair Removal and Grouping] In Day 0, 7 week old female C57BL/6 mice were anesthetized with zoletil/rompun, and the hair in the back was cut and removed with a clipper and wax, respectively. Mice with flawless (i.e. spotless) hair removal were selected and randomly assigned into three groups (10 animals per group).
[Topical Administration] The topical solutions of “ASO 5” were prepared by diluting a mother stock solution of “ASO 5” to 1, 5, or 25 fM in aqueous 30% (v/v) ethanol supplemented with 3% (v/v) glycerin. About 100 μL of each ASO solution or vehicle (negative control) was topically administered to in the back of an animal using a cotton ball in Days 3, 7, 10, 14 and 21.
Following the shaving in Day 21, the animals received a single topical administration of either vehicle or “ASO 5” at 1 fM, 5 fM, or 25 fM. In Day 53, the hair in the back was collected by shaving with a clipper to determine the total amount of hair growth between Days 21 and 53. The average hair weights of the 1 fM, 5 fM, and 25 fM groups were 1,630%, 1,450%, and 771% of the non-treated group, respectively. Thus “ASO 5” was concluded to promote hair growth upon topical administrations at 1 to 25 fM.
[Hair Removal and Grouping] In Day 0, 7 week old female C57BL/6 mice were anesthetized with zoletil/rompun, and the hair in the back was cut and removed with a clipper and wax, respectively. Mice with flawless (i.e. spotless) hair removal were selected and randomly assigned into three groups (9 animals per group).
[Topical Administration] The topical solutions of “ASO 10” were prepared by diluting a mother stock solution of “ASO 10” to 1, 5, or 25 fM in aqueous 30% (v/v) ethanol supplemented with 3% (v/v) glycerin. About 100 μL of each ASO solution or vehicle (negative control) was topically administered to in the back of an animal using a cotton ball in Day 2.

For the next data set, the system named is full-length AR protein. Description: Western blot of AR protein in MCF7 cells. In kind it is cell-based, human. Particulars: 10 zM to 30 aM. Here is the method: 4 culture dishes were used for 4 negative controls. 48 hours later, cells were washed 2 times with cold PBS, and then subjected to lysis with 200 μL 1× cell lysis buffer (Cat. No. 9803, Cell Signaling Tech) supplemented with 1× protease inhibitor (Cat. No. P8340, Sigma). The lysates were collected in 1.5 ml e-tube. 200 μL of each lysate was mixed with 100 μL 3× sample buffer, and boiled for 5 min at 100 ? . 20 μL of each lysate (12 lysates in total). 4 negative controls and 8 ASO treatment samples) was subjected to electrophoretic separation on a 8% SDS-PAGE gel, and transferred onto a 0.2 μm PVDF membrane. The membrane was probed with anti-AR antibody (Cat. No. 5153, Cell Signaling Tech) and anti-β-actin antibody (Cat. No. sc4778, Santa Cruz). FIG. 10A provides the AR Western blot data obtained therefrom. Multiple (negative) control samples were used to overcome technical artifacts of western blot procedures.
On the technique in general: A western blot detects proteins with antibodies after separation by electrophoresis.

[C(1O2)] = PNA monomer with modified cytosine C(1O2), structure; [A(5)] = PNA monomer with modified adenine A(5), structure; {Fethoc} = Fethoc group on PNA N-terminus; {NH2} = C-terminal amide

“Fethoc-C(1O2)TT-A(5)CC-A(5)GG(6)-CA(5)A-NH2 (antisense CTTACCAGGCAA; N-Fethoc, C-terminal amide, chemistry not fully specified) [ASO 10]”: the “Tm Value, 10-mer DNA against C-Terminal” value with 10-mer complementary DNA was found to be 78.4 °C. Also, the “Tm Value, 10-mer DNA against N-Terminal” value in the data set with 10-mer complementary DNA was 84.4 °C. Also, in the data set with human AR mRNA [1] (1 zM to 1,000 zM), the “decrease of relative expression level of exons 4-6” value is reported as 60-80%. Besides, the “decrease of relative expression level of exons 4-6 (TaqMan)” value in the data set on human AR mRNA [2] was 50 to 70%. Besides, the average hair weight in the data set on C57BL/6 mice (1 fM topical in Day 2, hair growth between Day 0 and Day 27) was 115 % of the non-treated group; with C57BL/6 mice (5 fM topical in Day 2, hair growth between Day 0 and Day 27), 114 % of the non-treated group; in the data set on C57BL/6 mice (25 fM topical in Day 2, hair growth between Day 0 and Day 27), 119 % of the non-treated group. Further, the “brightness score vs non-treatment group” value with C57BL/6 mice (Day 27, 1 fM and 5 fM groups, topical in Day 2) is recorded as “significantly lower”.

As to “Fethoc-C(1O2)TT-A(5)CC-A(5)GG-C(1O2)AA(5)-G-NH2 (antisense CTTACCAGGCAAG; all peptide nucleic acid (PNA), [C(1O2)] at 1, 10, [A(5)] at 4, 7, 12, 5' {Fethoc}, 3' {NH2}; peptide nucleic acid, written N to C terminus) [ASO 5]”, the “Tm Value, 10-mer DNA against C-Terminal” value with 10-mer complementary DNA was found to be 81.3 °C. The “Tm Value, 10-mer DNA against N-Terminal” value in the data set with 10-mer complementary DNA is 86.1 °C. Further, in the data set on human AR mRNA [1] (1 aM), the “exon message levels (exons 4-6) relative to negative control” value is listed as “rebounded to near the levels of the negative control”. For the same substance, the “decrease of exon message levels (exons 4-6)” value in the data set on human AR mRNA [1] (100 zM) was in the range of 50 to 60%. In addition, in the data set on full-length AR protein, the “AR band intensity vs neighboring lysates without ASO treatment” value is listed as “considerably weaker”. Further, the average hair weight in the data set with C57BL/6 mice (1 fM topical, hair growth between Day 0 and Day 21) is 293 % of the negative control group; in the data set with C57BL/6 mice (1 fM, single topical administration after shaving in Day 21, hair growth between Days 21 and 53), 1,630 % of the non-treated group; in the data set on C57BL/6 mice (5 fM topical, hair growth between Day 0 and Day 21), 306 % of the negative control group; in the data set on C57BL/6 mice (5 fM, single topical administration after shaving in Day 21, hair growth between Days 21 and 53), 1,450 % of the non-treated group; in the data set with C57BL/6 mice (25 fM topical, hair growth between Day 0 and Day 21), 278 % of the negative control group; in the data set on C57BL/6 mice (25 fM, single topical administration after shaving in Day 21, hair growth between Days 21 and 53), 771 % of the non-treated group. In the data set on C57BL/6 mice (Day 17, 1 fM and 25 fM groups, topical in Days 3, 7, 10, 14 and 21), the “brightness score vs non-treated group” value is on record as “significantly lower”.
